According to patent US8268755B2, “Oxime ether derivative and fungicide for agricultural and horticultural use” (Nippon Soda Co., Ltd., priority 2007, dated 2012):

COC(=O)NOc1cc(/C(C)=N/OCc2cccc(C(F)(F)F)n2)ccc1Cl [Compound 1446, methyl N-(2-chloro-5-{1-[6-trifluoromethylpyridin-2-ylmethoxyimino]ethyl}phenoxy) carbamate]
melting point: 100 to 101 °C
